Test results taken from the CheMixHub ionic liquid set.
Several values for one entry are separate records, joined by “and”; a condition that tells them apart may be missing. Equal values may be shown once. ± gives the uncertainty stated by the source.

Assay: xn = mol fraction of the nth substance listed
Conditions: 101.3 kPa

## CCCC[N+]1(C)CCCCC1.F[P-](F)(F)(F)(F)F + CCCC[n+]1cccc(C)c1.F[P-](F)(F)(F)(F)F + CCCC[N+]1(C)CCCC1.F[P-](F)(F)(F)(F)F
298.15 K, x2 = 0.4, x1 = 0.24
  viscosity: 1666 ± 82 mPa·s and 1686 ± 230 mPa·s
298.15 K, x2 = 0.4, x1 = 0.3
  viscosity: 1857 ± 94 mPa·s
298.15 K, x2 = 0.4, x1 = 0.36
  viscosity: 2084 ± 110 mPa·s
298.15 K, x2 = 0.4, x1 = 0.42
  viscosity: 2332 ± 120 mPa·s
298.15 K, x2 = 0.4, x1 = 0.48
  viscosity: 2615 ± 140 mPa·s
298.15 K, x2 = 0.4, x1 = 0.54
  viscosity: 2945 ± 170 mPa·s
303.15 K, x2 = 0.4, x1 = 0.06
  viscosity: 794 ± 33 mPa·s
303.15 K, x2 = 0.4, x1 = 0.12
  viscosity: 916 ± 39 mPa·s
303.15 K, x2 = 0.4, x1 = 0.18
  viscosity: 964 ± 42 mPa·s
303.15 K, x2 = 0.4, x1 = 0.24
  viscosity: 1130 ± 52 mPa·s and 1143 ± 130 mPa·s
303.15 K, x2 = 0.4, x1 = 0.3
  viscosity: 1248 ± 59 mPa·s
303.15 K, x2 = 0.4, x1 = 0.36
  viscosity: 1390 ± 68 mPa·s
303.15 K, x2 = 0.4, x1 = 0.42
  viscosity: 1544 ± 77 mPa·s
303.15 K, x2 = 0.4, x1 = 0.48
  viscosity: 1714 ± 87 mPa·s
303.15 K, x2 = 0.4, x1 = 0.54
  viscosity: 1917 ± 100 mPa·s
308.15 K, x2 = 0.3, x1 = 0.28
  viscosity: 964 ± 96 mPa·s
308.15 K, x2 = 0.4, x1 = 0.06
  viscosity: 568 ± 22 mPa·s
308.15 K, x2 = 0.4, x1 = 0.12
  viscosity: 648 ± 26 mPa·s
308.15 K, x2 = 0.4, x1 = 0.18
  viscosity: 680 ± 28 mPa·s
308.15 K, x2 = 0.4, x1 = 0.24
  viscosity: 783 ± 33 mPa·s and 791 ± 72 mPa·s
308.15 K, x2 = 0.4, x1 = 0.3
  viscosity: 859 ± 37 mPa·s
308.15 K, x2 = 0.4, x1 = 0.36
  viscosity: 948 ± 42 mPa·s
308.15 K, x2 = 0.4, x1 = 0.42
  viscosity: 1045 ± 48 mPa·s
308.15 K, x2 = 0.4, x1 = 0.48
  viscosity: 1152 ± 54 mPa·s
308.15 K, x2 = 0.4, x1 = 0.54
  viscosity: 1278 ± 61 mPa·s
308.15 K, x2 = 0.5, x1 = 0.2
  viscosity: 648 ± 54 mPa·s
308.15 K, x2 = 0.6, x1 = 0.16
  viscosity: 534 ± 40 mPa·s
313.15 K, x2 = 0.3, x1 = 0.28
  viscosity: 684 ± 57 mPa·s
313.15 K, x2 = 0.4, x1 = 0.06
  viscosity: 413 ± 15 mPa·s
313.15 K, x2 = 0.4, x1 = 0.12
  viscosity: 467 ± 17 mPa·s
313.15 K, x2 = 0.4, x1 = 0.18
  viscosity: 488 ± 18 mPa·s
313.15 K, x2 = 0.4, x1 = 0.24
  viscosity: 556 ± 21 mPa·s and 561 ± 42 mPa·s
313.15 K, x2 = 0.4, x1 = 0.3
  viscosity: 606 ± 24 mPa·s
313.15 K, x2 = 0.4, x1 = 0.36
  viscosity: 664 ± 27 mPa·s
313.15 K, x2 = 0.4, x1 = 0.42
  viscosity: 727 ± 30 mPa·s
313.15 K, x2 = 0.4, x1 = 0.48
  viscosity: 795 ± 34 mPa·s
313.15 K, x2 = 0.4, x1 = 0.54
  viscosity: 875 ± 38 mPa·s
313.15 K, x2 = 0.5, x1 = 0.2
  viscosity: 465 ± 32 mPa·s
313.15 K, x2 = 0.6, x1 = 0.16
  viscosity: 385 ± 24 mPa·s
313.15 K, x2 = 0.7, x1 = 0.12
  viscosity: 325 ± 19 mPa·s
318.15 K, x2 = 0.2, x1 = 0.32
  viscosity: 596 ± 45 mPa·s
318.15 K, x2 = 0.3, x1 = 0.28
  viscosity: 495 ± 35 mPa·s
318.15 K, x2 = 0.4, x1 = 0.06
  viscosity: 306 ± 10 mPa·s
318.15 K, x2 = 0.4, x1 = 0.12
  viscosity: 344 ± 12 mPa·s
318.15 K, x2 = 0.4, x1 = 0.18
  viscosity: 358 ± 12 mPa·s
318.15 K, x2 = 0.4, x1 = 0.24
  viscosity: 404 ± 14 mPa·s and 407 ± 26 mPa·s
318.15 K, x2 = 0.4, x1 = 0.3
  viscosity: 437 ± 16 mPa·s
318.15 K, x2 = 0.4, x1 = 0.36
  viscosity: 476 ± 18 mPa·s
318.15 K, x2 = 0.4, x1 = 0.42
  viscosity: 518 ± 20 mPa·s
318.15 K, x2 = 0.4, x1 = 0.48
  viscosity: 563 ± 22 mPa·s
318.15 K, x2 = 0.4, x1 = 0.54
  viscosity: 615 ± 24 mPa·s
318.15 K, x2 = 0.5, x1 = 0.2
  viscosity: 340 ± 20 mPa·s
318.15 K, x2 = 0.6, x1 = 0.16
  viscosity: 284 ± 15 mPa·s
318.15 K, x2 = 0.7, x1 = 0.12
  viscosity: 241 ± 12 mPa·s
318.15 K, x2 = 0.8, x1 = 0.08
  viscosity: 206 ± 9 mPa·s
323.15 K, x2 = 0.2, x1 = 0.32
  viscosity: 439 ± 28 mPa·s
323.15 K, x2 = 0.3, x1 = 0.28
  viscosity: 365 ± 22 mPa·s
323.15 K, x2 = 0.4, x1 = 0.06
  viscosity: 232 ± 7 mPa·s
323.15 K, x2 = 0.4, x1 = 0.12
  viscosity: 258 ± 8 mPa·s
323.15 K, x2 = 0.4, x1 = 0.18
  viscosity: 268 ± 8 mPa·s
323.15 K, x2 = 0.4, x1 = 0.24
  viscosity: 300 ± 10 mPa·s and 302 ± 16 mPa·s
323.15 K, x2 = 0.4, x1 = 0.3
  viscosity: 323 ± 11 mPa·s
323.15 K, x2 = 0.4, x1 = 0.36
  viscosity: 349 ± 12 mPa·s
323.15 K, x2 = 0.4, x1 = 0.42
  viscosity: 378 ± 13 mPa·s
323.15 K, x2 = 0.4, x1 = 0.48
  viscosity: 408 ± 14 mPa·s
323.15 K, x2 = 0.4, x1 = 0.54
  viscosity: 444 ± 16 mPa·s
323.15 K, x2 = 0.5, x1 = 0.2
  viscosity: 253 ± 12 mPa·s
323.15 K, x2 = 0.6, x1 = 0.16
  viscosity: 213 ± 9 mPa·s
323.15 K, x2 = 0.7, x1 = 0.12
  viscosity: 182 ± 7 mPa·s
323.15 K, x2 = 0.8, x1 = 0.08
  viscosity: 157 ± 6 mPa·s
323.15 K, x2 = 0.9, x1 = 0.04
  viscosity: 136 ± 5 mPa·s
328.15 K, x2 = 0.2, x1 = 0.32
  viscosity: 329 ± 18 mPa·s
328.15 K, x2 = 0.3, x1 = 0.28
  viscosity: 274 ± 14 mPa·s
328.15 K, x2 = 0.4, x1 = 0.06
  viscosity: 178 ± 5 mPa·s
328.15 K, x2 = 0.4, x1 = 0.12
  viscosity: 197 ± 6 mPa·s
328.15 K, x2 = 0.4, x1 = 0.18
  viscosity: 204 ± 6 mPa·s
328.15 K, x2 = 0.4, x1 = 0.24
  viscosity: 227 ± 7 mPa·s and 229 ± 10 mPa·s
328.15 K, x2 = 0.4, x1 = 0.3
  viscosity: 243 ± 7 mPa·s
328.15 K, x2 = 0.4, x1 = 0.36
  viscosity: 261 ± 8 mPa·s
328.15 K, x2 = 0.4, x1 = 0.42
  viscosity: 281 ± 9 mPa·s
328.15 K, x2 = 0.4, x1 = 0.48
  viscosity: 302 ± 10 mPa·s
328.15 K, x2 = 0.4, x1 = 0.54
  viscosity: 327 ± 11 mPa·s
328.15 K, x2 = 0.5, x1 = 0.2
  viscosity: 192 ± 8 mPa·s
328.15 K, x2 = 0.6, x1 = 0.16
  viscosity: 163 ± 6 mPa·s
328.15 K, x2 = 0.7, x1 = 0.12
  viscosity: 140 ± 5 mPa·s
328.15 K, x2 = 0.8, x1 = 0.08
  viscosity: 121 ± 4 mPa·s
328.15 K, x2 = 0.9, x1 = 0.04
  viscosity: 106 ± 3 mPa·s
333.15 K, x2 = 0.2, x1 = 0.32
  viscosity: 250 ± 12 mPa·s
333.15 K, x2 = 0.3, x1 = 0.28
  viscosity: 210 ± 9 mPa·s
333.15 K, x2 = 0.4, x1 = 0.06
  viscosity: 139 ± 4 mPa·s
333.15 K, x2 = 0.4, x1 = 0.12
  viscosity: 153 ± 4 mPa·s
333.15 K, x2 = 0.4, x1 = 0.18
  viscosity: 158 ± 4 mPa·s
333.15 K, x2 = 0.4, x1 = 0.24
  viscosity: 175 ± 5 mPa·s and 176 ± 7 mPa·s
333.15 K, x2 = 0.4, x1 = 0.3
  viscosity: 186 ± 5 mPa·s
333.15 K, x2 = 0.4, x1 = 0.36
  viscosity: 199 ± 6 mPa·s
333.15 K, x2 = 0.4, x1 = 0.42
  viscosity: 214 ± 6 mPa·s
333.15 K, x2 = 0.4, x1 = 0.48
  viscosity: 228 ± 7 mPa·s
333.15 K, x2 = 0.4, x1 = 0.54
  viscosity: 246 ± 8 mPa·s
333.15 K, x2 = 0.5, x1 = 0.2
  viscosity: 149 ± 5 mPa·s
